The results in this text go back to patent publication US11801235B2, “Methods and compositions for delivery of biotin to mitochondria” (priority 2020, dated 2023).

Square brackets hold non-standard residues; d marks the D form. Peptide text beside a SMILES is read from it. * marks the point of attachment. Biotin = O=C1N[C@H]2[C@H](CS[C@H]2CCCCC(=O)*)N1; Dmt = Cc1cc(O)cc(C)c1C[C@H](N)C(=O)O

Series [1] deals with ARPE-19 human retinal pigment epithelial cells. In words: Mitochondrial localization: co-localization with cytochrome c oxidase subunit 4 (COX4). Format: cell-based. The note with it: ARPE-19 cells, 1 uM, 2 hours, serum-free DMEM/F12. As for the experimental part: Cells were fixed with 4% PFA at RT for 10 min and then permeabilized with 0.1% Triton X-100 at RT for 10 min. Cells were blocked with 2% BSA (bovine serum albumin) at RT for 30 min, and then incubated with primary antibody for cytochrome c oxidase subunit 4 (COX4), a major protein complex expressed on the inner mitochondrial membrane. The rabbit polyclonal COX4 antibody (Invitrogen PAS-29992, Waltham, MA) was used at 1:500 dilution in 2% BSA at 4° C. overnight.

The subject of series [2] is ARPE-19 human retinal pigment epithelial cell monolayers. Kind of series: Cell proliferation at scratch edge (PCNA staining). It counts as cell-based. To be noted: ARPE-19 cells, 10 nM, serum-free, 24 hours after scratch. The text has this:
(§1) Re-epithelialization of a wound area require proliferation of cells at the wound edge, which can be impaired in most wounds due to lack of blood flow to deliver nutrients and/or growth factor(s) that can be necessary for cell proliferation. Cell proliferation in the wound edge can be monitored by proliferating cell nuclear antigen (PCNA) staining. To mimic the microenvironment of wounds in vitro, serum-free medium was used for the scratch assay in cell cultures.
(§2) Proliferating cells were identified by immunostaining with antibody to proliferating cell nuclear antigen (PCNA) according to standard procedures as presented in IHC World. PCNA staining was performed using the same plate of cells after determination of scratch area. […] All cell nuclei stain blue with Hoechst, but nuclei of proliferating cells stain red. The number of proliferating cells per field was quantified by the intensity of red nuclear stain and normalized to intensity of blue nuclear stain (determined by Nikon NIS-Elements Imaging Software).

The subject of series [3] is HK-2 cells. Kind of series: Cell viability (Alamar Blue) after 11 days of serum starvation. It counts as cell-based, human. The note with it: 10 nM, vs serum-free control. The procedure:
In the first model, HK-2 cells were cultured in 96-well plates in serum-free DMEM alone or in serum-free DMEM containing 10 nM of SPN11 or SPN12 for 11 days. Culture medium was replaced every 3 days.
(§3) Cell viability was measured using the Alamar Blue Cell Proliferation Assay (Bio-Rad), according to manufacturer's protocol. Alamar Blue uses resazurin to measure reducing power of living cells. The weakly fluorescent resazurin is reduced to the highly fluorescent resorufin when reduced by cellular metabolism. Briefly, alamar blue reagent (10 ul) was added to the culture medium and incubated for 1 h at 37° C. Fluorescence from resorufin (Ex/Em 530/590 nm) was detected using a microplate reader (SpectraMax iD3, Molecular Devices).

Series [4] concerns HK-2 cells. Kind of series: Cellular ATP in extreme starvation model (serum-free 5% DMEM in PBS, 3 days). Format: cell-based, human. To be noted: 10 nM. As for the experimental part:
ATP was measured using the ApoSENSOR ATP Bioluminescence Assay Kit (BioVision) according to manufacturer's protocol. This kit utilizes luciferase to catalyze the formation of light from ATP and luciferin. Briefly, cells were treated with 100 ul of Nuclear Releasing Buffer for 5 min at RT with gentle shaking. 10 ul of ATP Monitoring Enzyme was added to cell lysate, and luminescence was measured using a microplate reader (SpectraMax iD3, Molecular Device). ATP levels were normalized to the serum-free DMEM control group (arbitrarily set to 1.0).
The second model uses an extreme starvation model whereby HK-2 cells were cultured in 96-well plates in serum-free 5% DMEM in PBS (phosphate-buffered saline) for 3 days. Cells were treated with 10 nM free biotin or peptide-conjugated biotin molecules. All treatments were carried out with N=6 in each experiment.

The subject of series [5] is HK-2 cells. Kind of series: In vitro scratch assay (scratch area). The note with it: 10 nM; for scratch area after 24 hours, microscopic images FIG. 15: serum-free DMEM, 24 hours after mechanical scratch; for closure of the scratch area compared to control, FIG. 16 and FIG. 17 / effectiveness in reducing scratch area compared to free biotin, FIG. 16 and FIG. 17: serum-free, 24 hours. It counts as cell-based, human. As for the experimental part:
(§4) Certain exemplary peptide-conjugated biotin molecules can accelerate wound healing in cell cultures. The in vitro scratch assay is an easy and well-developed method to measure cell proliferation and migration over a “wound area” in vitro. This assay involves creating a “scratch” in a cell monolayer with a pipette tip and then examining the rate at which cells proliferate and migrate to close the scratch.
3×10^5 cells were plated per well in 6-well plates in DMEM at 37° C. in a humidified incubator with 5% CO2 for one day prior to the experiment. To mimic the microenvironment of wounds in vitro, serum-free medium was used in the scratch assay. On the day of the scratch assay, the medium was replaced with serum-free DMEM, and a line scraped across the cell monolayer using a p1000 pipette tip. Cells were washed to remove cell debris and replaced with DMEM alone (control), or DMEM containing 10 nM biotin or peptide-conjugated biotin molecules.
(§5) The scratch area was examined immediately (day 0) using a Nikon Eclipse Ti2 fluorescence microscope. Six different field were captured for each sample using 4×objective. The scratch area (cell-free zone) was calculated using ImageJ software, an open-source Java image processing program inspired by NIH Image (National Institute of Health). The scratch area was re-examined after 24 hours (day 1), and the area was normalized to the area determined on day 0 for the same sample. All results were calculated as change from no-treatment control and averaged for the six fields.

The test system of series [6] is HK-2 human renal epithelial cell monolayers. Kind of series: Cell proliferation at scratch edge (PCNA staining). Format: cell-based. The note with it: HK-2 cells, 10 nM, serum-free, 24 hours after scratch; for number of proliferating cells normalized to all nuclei, FIG. 21: compared to control or biotin.
From the text: as §1, §2

Series [7] deals with HK-2 cells. Kind of series: Mitochondrial potential (TMRM) of cells at the scratch edge. Format: cell-based, human. The note with it: 10 nM, serum-free, 24 hours after scratch; for mitochondrial potential (red fluorescence) normalized to nuclear number, FIG. 25: compared to control. The text has this:
Rapidly dividing cells can need ATP to support the synthesis of important building blocks. Tissue injury can cause rapid mitochondrial depolarization that compromises ATP production and/or results in cell death. The loss of ATP can further impair cell proliferation and/or tissue repair. Mitochondrial potential can be monitored in the cells at the edge of the scratch area using the cell-permeable potential-dependent dye TMRM (tetramethylrhodamine methyl ester). TMRM can accumulate in negatively charged polarized mitochondria and can be detected as red fluorescence. To mimic the microenvironment of wounds in vitro, serum-free medium was used in the scratch assay. […] HK-2 cells were then incubated with 5 nM TMRM in DMEM without phenol red and incubated for 30 min. Cells were then covered with live cell image buffer and imaged using Nikon Eclipse Ti2 fluorescent microscope (20× objective).

In series [8] the test system is ARPE-19 human retinal pigment epithelial cells. Kind of series: Biotin uptake by streptavidin-Alexa Fluor 594 fluorescence in ARPE-19 cells. The note with it: 1 uM, 1-hour incubation, serum-free. The procedure:
Cellular uptake and localization of peptide-conjugated biotin molecules were determined in HK-2 human renal epithelial cells and ARPE-19 human retinal pigment epithelial cells (ATCC, Manassas, VA). HK-2 cells were cultured in Dulbecco's Modified Eagle's Medium (DMEM) containing 1 g/L glucose and 10% fetal bovine serum (FBS), 100 units/ml penicillin and 100 ug/ml streptomycin. ARPE-19 cells were cultured in DMEM/F12 medium containing 1 g/L glucose and 10% fetal bovine serum (FBS), 100 units/ml penicillin and 100 ug/ml streptomycin. Cells were incubated in humidified incubator with 5% CO2 at 37° C. HK-2 cells and ARPE-19 cells were seeded in 35 mm dish at an initial density of 5×10^4 cells. FBS was removed from the culture medium for 3 days to deplete endogenous biotin in the cells. […]
Biotin uptake was determined using Streptavidin binding. […] By using Alexa Fluor 594-conjugated streptavidin, it is possible to visualize biotin uptake using fluorescence microscopy. […] Live cell image buffer was added and Alexa-594 fluorescence (Ex/Em=591/614 nm) and Hoechst fluorescence ([…]) was observed using the Nikon Eclipse Ti2 fluorescence microscope (100×oil objective). Ten random fields from each sample were quantified by NIS-Elements Imaging Software (Nikon) for streptavidin fluorescence and normalized to Hoechst fluorescence to account for number of cells per field.

In series [9] the test system is ARPE-19 cells. In words: Cell number and viability after 30 days of serum deprivation. It counts as cell-based, human. To be noted: 10 nM. As for the experimental part: as §3
In the second model, ARPE-19 cells were grown in serum-free DMEM in the absence or presence of peptide-conjugated biotin molecules for 30 days. Serum-free media was supplemented with 10 nM of SPN12, SPN15 or SPN16 compounds (all at 10 nM) was replaced every 3 days. Culture medium was replaced every 3 days.

The subject of series [10] is ARPE-19 cells. Kind of series: In vitro scratch assay (scratch area). It counts as cell-based, human.
From the text: as §4, §5

Turning to `Cc1cc(O)cc(C)c1C[C@H](NC(=O)[C@@H](CCCNC(=N)N)NC(=O)CCCC[C@@H]1SC[C@@H]2NC(=O)N[C@@H]21)C(=O)N[C@@H](CCCCN)C(=O)N[C@@H](Cc1ccccc1)C(N)=O` [SPN05, D-Biotin-D-Arg-L-(2′6′-dimethylTyr)-L-Lys-L-Phe-NH2] (Biotin-[dR][Dmt]KF-NH2), in series [1], the “co-localization of biotin staining with COX4 staining (inner mitochondrial membrane), FIG. 6” value is on record as “co-localization”.

With `N=C(N)NCCC[C@@H](NC(=O)[C@@H](Cc1c[nH]c2ccccc12)NC(=O)CCCC[C@@H]1SC[C@@H]2NC(=O)N[C@@H]21)C(=O)N[C@H](Cc1c[nH]c2ccccc12)C(=O)N[C@H](CCCCN)C(=O)O` [SPN08, D-Biotin-D-Trp-D-Arg-D-Trp-D-Lys-OH] (Biotin-[dW][dR][dW][dK]-OH), the “number of proliferating (PCNA-positive) cells at the edge of the scratch, images FIG. 22” value (“number of proliferating … images FIG. 22” for short) in [2] was “increased the number of proliferating cells”.

For the molecule `N=C(N)NCCC[C@@H](NC(=O)[C@H](N)Cc1c[nH]c2ccccc12)C(=O)N[C@H](Cc1c[nH]c2ccccc12)C(=O)N[C@H](CCCCNC(=O)CCCC[C@@H]1SC[C@@H]2NC(=O)N[C@@H]21)C(=O)O` [SPN09, D-Trp-D-Arg-D-Trp-D-Lys(biotinyl)-OH] (H-[dW][dR][dW][dK](Biotin)-OH; N-terminus assumed), in [2], the “number of proliferating … images FIG. 22” value is “increased the number of proliferating cells”.

For the molecule `N=C(N)NCCC[C@H](NC(=O)[C@@H](N)Cc1c[nH]c2ccccc12)C(=O)N[C@@H](Cc1c[nH]c2ccccc12)C(=O)N[C@@H](CCCCNC(=O)CCCC[C@@H]1SC[C@@H]2NC(=O)N[C@@H]21)C(N)=O` [SPN11, L-Trp-L-Arg-L-Trp-L-Lys(biotinyl)-NH2] (H-WRWK(Biotin)-NH2; N-terminus assumed), the “improvement of cell viability in the absence of serum, FIG. 7” value in the series on HK-2 cells [3] is 35%. Also, in the series with HK-2 cells [4], the “ATP content compared to free biotin under extreme starvation, FIG. 12” value is recorded as “doubling”. In the series with HK-2 cells [5], the “scratch area after 24 hours, microscopic images FIG. 15” value is “almost completely closed”; the “closure of the scratch area compared to control, FIG. 16 and FIG. 17” value is “significantly accelerated the closure of the scratch area”; the “effectiveness in reducing scratch area compared to free biotin, FIG. 16 and FIG. 17” value is given as “twice as effective”. Besides, in series [2], the “number of proliferating … images FIG. 22” value is given as “increased the number of proliferating cells”. Besides, the “number of proliferating cells normalized to all nuclei, FIG. 21” value in series [6] is reported as “doubled”. The “number of proliferating (PCNA-positive) cells at the edge of the scratch, images FIG. 20” value in series [6] (compared to free biotin) was “increased the number of proliferating cells”. In the series with HK-2 cells [7], the “number of cells with good mitochondrial potential (TMRM) at scratch edge, images FIG. 24” value was “increased the number of cells with good mitochondrial potential” and the “mitochondrial potential (red fluorescence) normalized to nuclear number, FIG. 25” value is “significantly increased mitochondrial potential”.

With `N=C(N)NCCC[C@@H](NC(=O)CCCC[C@@H]1SC[C@@H]2NC(=O)N[C@@H]21)C(=O)N[C@@H](Cc1ccc(O)cc1)C(=O)N[C@H](CCCNC(=N)N)C(=O)N[C@@H](Cc1ccccc1)C(=O)N[C@@H](CCCCNC(=O)CCCC[C@@H]1SC[C@@H]2NC(=O)N[C@@H]21)C(N)=O` [SPN16, D-Biotin-D-Arg-L-Tyr-D-Arg-L-Phe-L-Lys(biotinyl)-NH2] (Biotin-[dR]Y[dR]FK(Biotin)-NH2), the “intracellular streptavidin staining (cellular uptake of biotin), microscopic images FIG. 4” value in [8] is reported as “intense red staining with a perinuclear distribution”. Moreover, the “cell viability after serum deprivation compared to control, FIG. 9” value in the series on ARPE-19 cells [9] (30 days of serum deprivation) is listed as “doubled”. The “cell number after prolonged serum deprivation, microscopic images FIG. 8” value in the series with ARPE-19 cells [9] (30 days serum-free) is on record as “increased cell number”. For the same molecule, in the series on HK-2 cells [5], the “closure of the scratch area compared to control, FIG. 16 and FIG. 17” value is “significantly accelerated the closure of the scratch area”; the “effectiveness in reducing scratch area compared to free biotin, FIG. 16 and FIG. 17” value is given as “three times more effective”. The “wound healing (scratch closure), FIG. 18” value with ARPE-19 cells [10] is “accelerated wound healing”.

On to `O=C(O)CCCC[C@@H]1SC[C@@H]2NC(=O)N[C@@H]21` [biotin], for which, in the series on HK-2 cells [5], the “scratch area after 24 hours, microscopic images FIG. 15” value is reported as “small effect on reducing scratch area”; the “closure of the scratch area compared to control, FIG. 16 and FIG. 17” value is recorded as “significantly accelerated the closure of the scratch area”. Further, the “number of proliferating … images FIG. 22” value in [2] was “no effect”. In addition, the “increase of the percent of proliferating cells at the edge of the scratch, FIG. 23” value in series [2] (compared to control) was “without effect”. Further, the “number of proliferating cells normalized to all nuclei, FIG. 21” value in series [6] was “small and did not reach statistical significance”. For the same molecule, in the series with HK-2 cells [7], the “number of cells with good mitochondrial potential (TMRM) at scratch edge, images FIG. 24” value is recorded as “no effect” and the “mitochondrial potential (red fluorescence) normalized to nuclear number, FIG. 25” value is given as “did not reach statistical significance”.
